From US8304421B2, “Indole compounds and their use as radiation sensitizing agents and chemotherapeutic agents” (Vanderbilt University, priority 2008, dated 2012)

System: HUVECs
Experiment: Tubule formation assay on Matrigel
Format: cell-based, Human
Conditions: 25 μM, 24 hrs, assessed under microscope
Procedure: FIG. 5: HUVECs were plated on Matrigel, then treated wither DMSO or Compound 1 for 24 hrs. Tubule formation was assessed by looking under microscope.
Human umbilical vascular endothelial cells (HUVECs) (50,000 cells/well) were plated on Matrigel. After 30 min, the cells were treated either with DMSO or 25 μM Compound 1. Tubule formation was assessed by observing plates under microscope. FIG. 6 is represents 24 hr time point for DMSO and Compound 1.

Structure (SMILES): N#Cc1ccc(Cn2cc(C=C3C(=O)NC(=O)NC3=O)c3ccccc32)cc1 [Compound 1, 4-((3-((2,4,6-trioxotetrahydropyrimidin-5(6H)-ylidene)methyl)-1H-indol-1-yl)meth-yl)benzonitrile]
- Tubule formation by HUVECs: inhibited the tubule formation
